The nature of series [1]: Solubility of the diphosphate salt in a range of dissolution media. Type of series: physicochemical. On the procedure:
The pH of the aqueous mixtures were also measured.

The nature of series [2]: Stability assessment after storage at 40° C. and 75% RH for 3 weeks. Format: physicochemical. As to the method:
FIG. 3 compares the XRPD of the diphosphate salt (Form A) before (bottom) and after (top) storage at 40° C. and 75% RH.

Series [3] can be described thus: Dynamic vapour sorption (DVS) assessment. Type of series: physicochemical.
Protocol: The ability of samples studied to absorb moisture (or not) over a set of well-determined humidity ranges was assessed.
Sorption isotherms were obtained using a Hiden Isochema moisture sorption analyser (model IGAsorp), controlled by IGAsorp Systems Software V6.50.48. The sample was maintained at a constant temperature (25° C.) by the instrument controls. The humidity was controlled by mixing streams of dry and wet nitrogen, with a total flow of 250 ml·min^−1. The instrument was verified for relative humidity content by measuring three calibrated Rotronic salt solutions (10-50-88%). The weight change of the sample was monitored as a function of humidity by a microbalance (accuracy+/−0.005 mg). A defined amount of sample (typically 10-15 mg powder) was placed in a tared mesh stainless steel basket under ambient conditions. A full experimental cycle typically consisted of three scans (desorption, sorption, and desorption) at a constant temperature (25° C.) and 10% RH intervals over a 0-90% range (60 minutes for each humidity level).
Solids are then held post cycle at 0% RH for 2-3 hours and tested by XRPD and the remainder held at 90% RH for 2-3 hours and re-tested by XRPD.
A short description of series [4]: Solubility of the diphosphate salt in a range of dissolution media. Format: physicochemical. As to conditions: thermodynamic from solid, 37° C., minimum of 21 hours.
The target of the next series is T1, MPS1 kinase (Homo sapiens, UniProt P33981).
T1 sequence (P33981 1-857): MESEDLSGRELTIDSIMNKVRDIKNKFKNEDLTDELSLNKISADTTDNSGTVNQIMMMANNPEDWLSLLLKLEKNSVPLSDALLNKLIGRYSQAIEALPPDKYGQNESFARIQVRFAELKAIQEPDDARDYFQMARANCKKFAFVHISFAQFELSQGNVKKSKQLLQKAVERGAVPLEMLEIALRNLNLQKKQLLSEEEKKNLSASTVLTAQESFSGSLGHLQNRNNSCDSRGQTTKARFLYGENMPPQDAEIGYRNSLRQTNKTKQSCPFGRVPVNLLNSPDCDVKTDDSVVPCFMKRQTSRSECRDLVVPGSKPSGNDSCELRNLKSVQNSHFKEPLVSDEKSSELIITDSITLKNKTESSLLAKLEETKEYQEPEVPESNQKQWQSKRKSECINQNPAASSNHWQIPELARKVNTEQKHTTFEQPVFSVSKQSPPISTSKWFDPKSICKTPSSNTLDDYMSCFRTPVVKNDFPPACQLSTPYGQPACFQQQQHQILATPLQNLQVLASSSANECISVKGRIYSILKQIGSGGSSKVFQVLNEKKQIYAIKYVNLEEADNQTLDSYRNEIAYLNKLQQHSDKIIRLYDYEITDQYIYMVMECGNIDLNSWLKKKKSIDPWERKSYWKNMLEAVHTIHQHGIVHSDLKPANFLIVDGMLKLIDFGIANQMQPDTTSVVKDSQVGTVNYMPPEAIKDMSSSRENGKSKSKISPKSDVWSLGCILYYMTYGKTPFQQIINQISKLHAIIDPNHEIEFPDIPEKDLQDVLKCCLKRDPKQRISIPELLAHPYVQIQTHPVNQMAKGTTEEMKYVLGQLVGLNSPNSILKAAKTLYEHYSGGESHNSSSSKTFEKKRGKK
As to conditions: cited from earlier work.

A word on the solubility: it is how much of the substance goes into solution per volume.

Regarding `CCOc1cc(-c2nncn2C)ccc1Nc1ncc2cc(C)nc(NCC(C)(C)C)c2n1` [N2-(2-ethoxy-4-(4-methyl-4H-1,2,4-triazol-3-yl)phenyl)-6-methyl-N8-neopentylpyrido[3,4-d]pyrimidine-2,8-diamine], the “pH of the aqueous mixture” value in series [1] (Acetate buffer, pH 4.5) turned out to be 4.25; in series [1] (FaSSIF, pH 6.5), 2.07; in series [1] (FeSSIF, pH 5) it was 2.36; in series [1] (NaCl,0.9%/DMSO/Tween 20) it was 2.13; in series [1] (Phosphate buffer, pH 6.7), 2.38; in series [1] (SFaGF, pH 1.6) it was 1.72. Further, the “pH of the aqueous mixture” value in series [1] (Sodium chloride 0.9% w/v) came to 1.88; in series [1] (Water, deionised), 1.91. The “Chemical degradation after storage” value in series [2] is “no evidence of chemical degradation”. In addition, the Hydration after storage result in series [2] was “no evidence”. Also, the “Form modification after storage (XRPD)” value in series [2] (FIG. 3) is listed as “No evidence of form modification”. The “Change in appearance after storage” value in series [2] (loose screw top vials) is on record as “No change in appearance”. In addition, the “DVS profile (reversibility, hysteresis)” value in series [3] (0-90% RH, 25° C., FIG. 4) is “reversible water uptake over the humidity range and no hysteresis”. Further, the Water uptake/loss in series [3] (DVS, 0 to 90% RH, 25° C.) came to 4.03%. The “Water uptake/loss as equivalents of water” value in series [3] (DVS, 0 to 90% RH, 25° C.) is listed as “about 1.5 equivalents of water”. The “Flow of the solid post DVS” value in series [3] (post DVS and exposure to 90% RH) is on record as “free flowing”. Also, the “Form change post DVS (XRPD)” value in series [3] (post DVS at 0% RH and at 90% RH, FIG. 5) is listed as “no evidence of form change”. Also, the solubility in series [4] (aqueous buffer, Acetate buffer, pH 4.5) is 0.02 mg/mL; in series [4] (aqueous buffer, Phosphate buffer, pH 6.7), 30 mg/mL; in series [4] (aqueous with cosolvent or surfactant or cyclodextrin, NaCl,0.9%/DMSO/Tween 20) it was 30.2 mg/mL; in series [4] (fassgf or other biorelevant, SFaGF, pH 1.6), 30.5 mg/mL; in series [4] (organic solvent or mixture, PEG300), 4.17 mg/mL; in series [4] (saline or isotonic, Sodium chloride 0.9% w/v), 30.5 mg/mL. The solubility in series [4] (FaSSIF, pH 6.5) is 29.7 mg/mL; in series [4] (FeSSIF, pH 5) it was 10.9 mg/mL; in series [4] (Water, deionised), 30.2 mg/mL.
Regarding `CCOc1cc(-c2nncn2C)ccc1Nc1ncc2cc(C)nc(NCC(C)(C)C)c2n1` [compound I, N2-(2-ethoxy-4-(4-methyl-4H-1,2,4-triazol-3-yl)phenyl)-6-methyl-N8-neopentylpyrido[3,4-d]pyrimidine-2,8-diamine], the “MPS1 kinase inhibitory activity” value on MPS1 kinase was “potent”.

(Values after patent US11945814B2, “Salt form” (CRT Pioneer Fund LP, priority 2018, dated 2024).)
